Reference: the kinase profiling compilation of Christmann-Franck et al. (2016)

Legend:
Test in all cases: radiometric filter-binding kinase assay, Kinaseprofiler
AURKB (human) = AURKB (human) (UniProt Q96GD4); details: ATP 10 µM
BTK (human) = BTK (human) (UniProt Q06187); details: ATP 200 µM
CAMK2G (human) = CAMK2G (human) (UniProt Q13555); details: compound 10.0 µM; ATP 10 µM
CDK2 CCNE1 (human) = CDK2 CCNE1 (human) (UniProt P24941+P24864); details: ATP 120 µM
CDK3 CCNE1 (human) = CDK3 CCNE1 (human) (UniProt Q00526+P24864); details: ATP 200 µM
Sequence of CDK3 CCNE1 (human) (P24864 whole entry, looked up): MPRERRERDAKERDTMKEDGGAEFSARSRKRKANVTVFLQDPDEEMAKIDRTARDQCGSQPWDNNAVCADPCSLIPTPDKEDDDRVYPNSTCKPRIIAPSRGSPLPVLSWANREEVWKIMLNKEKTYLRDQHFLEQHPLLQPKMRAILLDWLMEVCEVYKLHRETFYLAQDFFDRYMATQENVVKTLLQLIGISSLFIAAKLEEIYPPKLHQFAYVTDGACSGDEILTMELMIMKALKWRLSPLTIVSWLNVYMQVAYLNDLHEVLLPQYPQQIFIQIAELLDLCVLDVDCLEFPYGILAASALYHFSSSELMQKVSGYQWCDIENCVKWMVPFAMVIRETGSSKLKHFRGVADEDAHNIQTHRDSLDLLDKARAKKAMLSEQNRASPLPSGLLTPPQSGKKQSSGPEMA
Sequence of CDK3 CCNE1 (human) (Q00526 whole entry, looked up): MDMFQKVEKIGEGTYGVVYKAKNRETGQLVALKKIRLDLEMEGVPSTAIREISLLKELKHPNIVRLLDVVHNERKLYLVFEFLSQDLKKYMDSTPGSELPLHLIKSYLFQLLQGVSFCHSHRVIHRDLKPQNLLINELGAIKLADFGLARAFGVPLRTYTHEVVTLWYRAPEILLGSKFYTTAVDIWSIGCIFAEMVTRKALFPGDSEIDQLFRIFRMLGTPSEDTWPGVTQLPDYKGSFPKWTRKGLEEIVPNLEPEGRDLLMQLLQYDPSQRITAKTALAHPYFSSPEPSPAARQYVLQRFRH

CDK7 CCNH MNAT1 (human) = CDK7 CCNH MNAT1 (human) (UniProt P50613+P51948+P51946); details: ATP 90 µM
Sequence of CDK7 CCNH MNAT1 (human) (P50613 whole entry, looked up): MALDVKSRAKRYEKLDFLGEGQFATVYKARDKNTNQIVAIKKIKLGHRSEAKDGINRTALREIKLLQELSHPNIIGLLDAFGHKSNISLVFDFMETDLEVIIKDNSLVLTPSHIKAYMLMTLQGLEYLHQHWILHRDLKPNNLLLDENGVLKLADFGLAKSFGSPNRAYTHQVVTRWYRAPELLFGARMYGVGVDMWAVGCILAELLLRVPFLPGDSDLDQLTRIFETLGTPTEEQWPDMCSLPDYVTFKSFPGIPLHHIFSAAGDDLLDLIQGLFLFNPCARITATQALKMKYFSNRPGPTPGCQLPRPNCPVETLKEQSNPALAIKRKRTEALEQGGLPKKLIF
Sequence of CDK7 CCNH MNAT1 (human) (P51946 whole entry, looked up): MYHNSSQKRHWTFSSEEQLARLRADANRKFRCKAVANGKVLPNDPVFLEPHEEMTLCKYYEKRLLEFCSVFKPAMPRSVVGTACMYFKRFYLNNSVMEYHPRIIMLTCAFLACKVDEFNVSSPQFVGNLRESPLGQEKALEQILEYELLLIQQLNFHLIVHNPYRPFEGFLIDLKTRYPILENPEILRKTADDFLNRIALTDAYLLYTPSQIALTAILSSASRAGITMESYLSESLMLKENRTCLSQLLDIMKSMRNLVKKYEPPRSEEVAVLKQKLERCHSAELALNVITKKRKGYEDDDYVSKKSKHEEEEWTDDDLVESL
Sequence of CDK7 CCNH MNAT1 (human) (P51948 whole entry, looked up): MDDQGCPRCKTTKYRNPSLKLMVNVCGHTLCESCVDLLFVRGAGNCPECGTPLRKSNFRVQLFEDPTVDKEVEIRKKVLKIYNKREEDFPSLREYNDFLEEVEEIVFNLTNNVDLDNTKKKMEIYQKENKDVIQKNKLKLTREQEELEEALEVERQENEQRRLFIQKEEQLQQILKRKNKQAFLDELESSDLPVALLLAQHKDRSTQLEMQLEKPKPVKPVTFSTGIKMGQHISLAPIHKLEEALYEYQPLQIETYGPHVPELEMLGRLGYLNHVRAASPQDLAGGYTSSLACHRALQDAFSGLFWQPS

CHEK1 (human) = CHEK1 (human) (UniProt O14757); details: compound 10.0 µM; ATP 90 µM
DYRK2 (human) = DYRK2 (human) (UniProt Q92630); details: compound 10.0 µM; ATP 15 µM
EPHA1 (human) = EPHA1 (human) (UniProt P21709); details: compound 10.0 µM; ATP 45 µM
FGR (human) = FGR (human) (UniProt P09769); details: compound 10.0 µM; ATP 45 µM
GCK (human) = GCK (human) (UniProt Q12851); details: compound 1.0 µM; ATP 200 µM
[1] = test system: HIPK2 (human), Q9H2X6 [I471N]; details: compound 10.0 µM; ATP 10 µM
HIPK3 (human) = HIPK3 (human) (UniProt Q9H422); details: compound 10.0 µM; ATP 15 µM
[2] = molecular target: JAK2 JH1 catalytic (human) (UniProt O60674); details: compound 10.0 µM; ATP 45 µM
[3] = molecular target: JAK3 JH1 catalytic (human) (UniProt P52333); details: ATP 10 µM
LYN (human) = LYN (human) (UniProt P07948); details: compound 10.0 µM; ATP 70 µM
MAP3K7 (human) = MAP3K7 (human) (UniProt O43318); details: ATP 45 µM
MAP3K9 (human) = MAP3K9 (human) (UniProt P80192); details: compound 10.0 µM; ATP 45 µM
MELK (human) = MELK (human) (UniProt Q14680); details: compound 10.0 µM; ATP 45 µM
MINK1 (human) = MINK1 (human) (UniProt Q8N4C8); details: compound 1.0 µM; ATP 185 µM
PAK6 (human) = PAK6 (human) (UniProt Q9NQU5); details: ATP 10 µM
Sequence of PAK6 (human) (Q9NQU5 whole entry, looked up): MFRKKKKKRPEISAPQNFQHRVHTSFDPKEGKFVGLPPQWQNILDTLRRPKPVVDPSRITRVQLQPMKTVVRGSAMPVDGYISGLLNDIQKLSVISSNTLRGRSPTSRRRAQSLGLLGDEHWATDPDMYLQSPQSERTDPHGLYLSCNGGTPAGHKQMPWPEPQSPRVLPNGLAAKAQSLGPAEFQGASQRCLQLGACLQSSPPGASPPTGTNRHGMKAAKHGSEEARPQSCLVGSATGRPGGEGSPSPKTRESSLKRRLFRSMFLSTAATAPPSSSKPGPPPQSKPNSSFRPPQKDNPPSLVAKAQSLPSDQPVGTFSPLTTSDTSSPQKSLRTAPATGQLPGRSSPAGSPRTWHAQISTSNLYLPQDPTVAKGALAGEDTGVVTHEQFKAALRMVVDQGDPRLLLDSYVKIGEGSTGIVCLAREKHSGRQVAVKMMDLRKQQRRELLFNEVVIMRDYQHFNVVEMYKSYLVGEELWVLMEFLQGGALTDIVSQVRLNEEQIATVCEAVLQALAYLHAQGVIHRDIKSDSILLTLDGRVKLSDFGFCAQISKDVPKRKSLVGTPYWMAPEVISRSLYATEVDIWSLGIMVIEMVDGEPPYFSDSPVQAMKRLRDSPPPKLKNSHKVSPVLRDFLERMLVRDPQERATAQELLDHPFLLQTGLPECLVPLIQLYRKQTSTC

PIM2 (human) = PIM2 (human) (UniProt Q9P1W9); details: compound 10.0 µM; ATP 15 µM
[4] = molecular target: PRKAA2 PRKAB1 PRKAG1 (human) (UniProt P54619+P54646+Q9Y478); details: ATP 45 µM
PRKCA (human) = PRKCA (human) (UniProt P17252); details: compound 10.0 µM; ATP 45 µM
[5] = test system: PRKD1 (human), Q15139 [R135A]; details: compound 10.0 µM; ATP 45 µM
PRKX (human) = PRKX (human) (UniProt P51817); details: compound 10.0 µM; ATP 200 µM
Sequence of PRKX (human) (P51817 whole entry, looked up): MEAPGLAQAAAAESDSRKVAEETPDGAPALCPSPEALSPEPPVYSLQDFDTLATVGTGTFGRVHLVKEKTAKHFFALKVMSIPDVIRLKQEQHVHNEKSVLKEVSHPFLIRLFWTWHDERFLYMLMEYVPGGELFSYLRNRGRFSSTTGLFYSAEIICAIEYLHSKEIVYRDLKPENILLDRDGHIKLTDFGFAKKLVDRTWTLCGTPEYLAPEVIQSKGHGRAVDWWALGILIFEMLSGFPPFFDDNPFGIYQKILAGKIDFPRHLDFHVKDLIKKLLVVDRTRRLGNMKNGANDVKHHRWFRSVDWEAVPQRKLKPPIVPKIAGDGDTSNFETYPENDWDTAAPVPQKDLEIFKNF

PTK2B (human) = PTK2B (human) (UniProt Q14289); details: compound 10.0 µM; ATP 90 µM
RPS6KA2 KD1 KD2 (human) = RPS6KA2 KD1 KD2 (human) (UniProt Q15349); details: compound 1.0 µM; ATP 10 µM
RPS6KA4 KD1 KD2 (human) = RPS6KA4 KD1 KD2 (human) (UniProt O75676); details: ATP 45 µM
Sequence of RPS6KA4 KD1 KD2 (human) (O75676 whole entry, looked up): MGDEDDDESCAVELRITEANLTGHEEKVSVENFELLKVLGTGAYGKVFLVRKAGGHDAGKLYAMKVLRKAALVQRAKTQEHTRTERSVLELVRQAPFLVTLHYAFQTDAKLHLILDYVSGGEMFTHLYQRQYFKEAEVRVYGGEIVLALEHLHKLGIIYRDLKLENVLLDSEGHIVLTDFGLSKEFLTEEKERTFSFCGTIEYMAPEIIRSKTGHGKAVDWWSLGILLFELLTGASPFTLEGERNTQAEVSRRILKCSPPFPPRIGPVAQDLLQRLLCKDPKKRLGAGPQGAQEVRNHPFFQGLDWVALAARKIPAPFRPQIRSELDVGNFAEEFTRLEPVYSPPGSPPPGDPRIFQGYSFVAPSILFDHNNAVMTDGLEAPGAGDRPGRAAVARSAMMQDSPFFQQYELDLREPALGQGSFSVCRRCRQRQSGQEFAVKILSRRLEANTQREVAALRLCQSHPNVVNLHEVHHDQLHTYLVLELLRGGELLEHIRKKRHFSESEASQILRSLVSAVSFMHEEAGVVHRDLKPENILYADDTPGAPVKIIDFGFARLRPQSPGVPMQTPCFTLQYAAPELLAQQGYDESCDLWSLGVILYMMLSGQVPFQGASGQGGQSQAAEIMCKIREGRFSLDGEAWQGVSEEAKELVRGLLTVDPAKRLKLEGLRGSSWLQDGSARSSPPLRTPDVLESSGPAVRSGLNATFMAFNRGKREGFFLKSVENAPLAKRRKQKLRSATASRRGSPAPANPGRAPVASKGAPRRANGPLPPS

STK24 (human) = STK24 (human) (UniProt Q9Y6E0); details: compound 10.0 µM; ATP 15 µM
TBK1 (human) = TBK1 (human) (UniProt Q9UHD2); details: compound 1.0 µM; ATP 155 µM
TLK2 (human) = TLK2 (human) (UniProt Q86UE8); details: compound 10.0 µM; ATP 10 µM
TSSK1B (human) = TSSK1B (human) (UniProt Q9BXA7); details: ATP 15 µM
Sequence of TSSK1B (human) (Q9BXA7 whole entry, looked up): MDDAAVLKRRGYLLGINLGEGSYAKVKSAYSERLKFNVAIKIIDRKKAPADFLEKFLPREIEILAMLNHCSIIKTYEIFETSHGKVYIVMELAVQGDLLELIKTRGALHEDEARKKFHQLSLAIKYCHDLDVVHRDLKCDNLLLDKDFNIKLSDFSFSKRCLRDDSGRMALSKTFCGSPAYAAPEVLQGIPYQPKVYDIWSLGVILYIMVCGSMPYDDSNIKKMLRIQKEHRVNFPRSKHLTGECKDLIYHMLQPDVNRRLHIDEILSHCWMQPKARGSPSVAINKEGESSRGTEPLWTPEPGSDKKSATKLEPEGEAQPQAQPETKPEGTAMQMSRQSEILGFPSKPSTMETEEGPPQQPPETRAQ

ULK2 (human) = ULK2 (human) (UniProt Q8IYT8); details: compound 10.0 µM; ATP 15 µM
ULK3 (human) = ULK3 (human) (UniProt Q6PHR2); details: compound 1.0 µM; ATP 10 µM

Sequence of BTK (human) (Q06187 whole entry, looked up): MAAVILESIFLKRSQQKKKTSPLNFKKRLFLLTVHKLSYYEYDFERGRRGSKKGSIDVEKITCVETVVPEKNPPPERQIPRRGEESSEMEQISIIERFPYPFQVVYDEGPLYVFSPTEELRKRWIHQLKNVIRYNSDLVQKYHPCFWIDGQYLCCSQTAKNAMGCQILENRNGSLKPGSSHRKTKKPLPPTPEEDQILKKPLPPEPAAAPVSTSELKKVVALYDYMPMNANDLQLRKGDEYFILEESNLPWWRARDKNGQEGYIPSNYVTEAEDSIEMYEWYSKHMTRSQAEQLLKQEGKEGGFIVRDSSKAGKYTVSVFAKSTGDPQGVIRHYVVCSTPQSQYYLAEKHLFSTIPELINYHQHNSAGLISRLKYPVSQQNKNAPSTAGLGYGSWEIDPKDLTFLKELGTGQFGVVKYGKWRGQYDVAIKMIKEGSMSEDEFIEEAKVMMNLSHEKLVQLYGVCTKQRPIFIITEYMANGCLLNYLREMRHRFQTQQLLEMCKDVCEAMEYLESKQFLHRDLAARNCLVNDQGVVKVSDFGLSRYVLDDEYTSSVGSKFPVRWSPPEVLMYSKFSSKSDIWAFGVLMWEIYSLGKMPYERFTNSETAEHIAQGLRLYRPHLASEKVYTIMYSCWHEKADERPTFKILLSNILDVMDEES
Sequence of CDK2 CCNE1 (human) (P24864 whole entry, looked up, other chains not shown): as the sequence (P24864 whole entry, looked up) above
Sequence of AURKB (human) (Q96GD4 whole entry, looked up): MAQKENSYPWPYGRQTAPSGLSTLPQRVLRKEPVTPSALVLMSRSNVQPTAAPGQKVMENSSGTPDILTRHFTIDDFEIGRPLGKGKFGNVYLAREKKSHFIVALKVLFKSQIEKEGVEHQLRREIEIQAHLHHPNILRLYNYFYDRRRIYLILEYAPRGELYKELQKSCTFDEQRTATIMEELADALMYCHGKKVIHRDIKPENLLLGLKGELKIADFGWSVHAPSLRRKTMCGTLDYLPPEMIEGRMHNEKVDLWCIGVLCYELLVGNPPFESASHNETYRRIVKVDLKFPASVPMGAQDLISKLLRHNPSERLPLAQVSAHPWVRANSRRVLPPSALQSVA

`COC(=O)[C@]1(O)C[C@@H]2O[C@@]1(C)n1c3ccccc3c3c4c(c5c6ccccc6n2c5c31)C(=O)NC4` was tested, and the residual activity (AURKB (human); compound 1.0 µM) was 0%, the residual activity (AURKB (human); compound 10.0 µM) was 0% and the residual activity (BTK (human); compound 1.0 µM) was -1%. For the same compound, the residual activity (BTK (human); compound 10.0 µM) was -1%, the residual activity (CAMK2G (human)) was 0% and the residual activity (CDK2 CCNE1 (human); compound 1.0 µM) was 6%. The residual activity (CDK2 CCNE1 (human); compound 10.0 µM) was 0%, the residual activity (CDK3 CCNE1 (human); compound 1.0 µM) was 27% and the residual activity (CDK3 CCNE1 (human); compound 10.0 µM) was 2%. For the same compound, the residual activity (CDK7 CCNH MNAT1 (human); compound 1.0 µM) was 55%, the residual activity (CDK7 CCNH MNAT1 (human); compound 10.0 µM) was 16% and the residual activity (CHEK1 (human)) was -1%. For the same compound, the residual activity (DYRK2 (human)) was -4%, the residual activity (EPHA1 (human)) was 0% and the residual activity (FGR (human)) was -1%. It also gave a residual activity (GCK (human)) of 0%, a residual activity [1] of -1% and a residual activity (HIPK3 (human)) of -4%. The residual activity [2] was -1%, the residual activity ([3]; compound 1.0 µM) was 0% and the residual activity ([3]; compound 10.0 µM) was 0%. For the same compound, the residual activity (LYN (human)) was 0%, the residual activity (MAP3K7 (human); compound 1.0 µM) was -1% and the residual activity (MAP3K7 (human); compound 10.0 µM) was -5%. It also gave a residual activity (MAP3K9 (human)) of 0%, a residual activity (MELK (human)) of -1% and a residual activity (MINK1 (human)) of 0%. The residual activity (PAK6 (human); compound 1.0 µM) was 0%, the residual activity (PAK6 (human); compound 10.0 µM) was -1% and the residual activity (PIM2 (human)) was -2%. It also gave a residual activity ([4]; compound 1.0 µM) of -5%, a residual activity ([4]; compound 10.0 µM) of 1% and a residual activity (PRKCA (human)) of 0%. It also gave a residual activity [5] of 0%, a residual activity (PRKX (human)) of 0% and a residual activity (PTK2B (human)) of -1%. It also gave a residual activity (RPS6KA2 KD1 KD2 (human)) of 0%, a residual activity (RPS6KA4 KD1 KD2 (human); compound 1.0 µM) of -1% and a residual activity (RPS6KA4 KD1 KD2 (human); compound 10.0 µM) of 0%. It also gave a residual activity (STK24 (human)) of 0%, a residual activity (TBK1 (human)) of -1% and a residual activity (TLK2 (human)) of 0%. It also gave a residual activity (TSSK1B (human); compound 1.0 µM) of -1%, a residual activity (TSSK1B (human); compound 10.0 µM) of 0% and a residual activity (ULK2 (human)) of 0%. The residual activity (ULK3 (human)) was 0%.
